Assays:
FLT3(ITD, F691L) = biological target: T1, FLT3(ITD, F691L) (Homo sapiens, UniProt P36888, F691L, form not given); type: binding
T1 construct: fused on or other part: DNA tag for the qPCR read-out (the KINOMEscan format)
T1 sequence (P36888 1-993 F691L): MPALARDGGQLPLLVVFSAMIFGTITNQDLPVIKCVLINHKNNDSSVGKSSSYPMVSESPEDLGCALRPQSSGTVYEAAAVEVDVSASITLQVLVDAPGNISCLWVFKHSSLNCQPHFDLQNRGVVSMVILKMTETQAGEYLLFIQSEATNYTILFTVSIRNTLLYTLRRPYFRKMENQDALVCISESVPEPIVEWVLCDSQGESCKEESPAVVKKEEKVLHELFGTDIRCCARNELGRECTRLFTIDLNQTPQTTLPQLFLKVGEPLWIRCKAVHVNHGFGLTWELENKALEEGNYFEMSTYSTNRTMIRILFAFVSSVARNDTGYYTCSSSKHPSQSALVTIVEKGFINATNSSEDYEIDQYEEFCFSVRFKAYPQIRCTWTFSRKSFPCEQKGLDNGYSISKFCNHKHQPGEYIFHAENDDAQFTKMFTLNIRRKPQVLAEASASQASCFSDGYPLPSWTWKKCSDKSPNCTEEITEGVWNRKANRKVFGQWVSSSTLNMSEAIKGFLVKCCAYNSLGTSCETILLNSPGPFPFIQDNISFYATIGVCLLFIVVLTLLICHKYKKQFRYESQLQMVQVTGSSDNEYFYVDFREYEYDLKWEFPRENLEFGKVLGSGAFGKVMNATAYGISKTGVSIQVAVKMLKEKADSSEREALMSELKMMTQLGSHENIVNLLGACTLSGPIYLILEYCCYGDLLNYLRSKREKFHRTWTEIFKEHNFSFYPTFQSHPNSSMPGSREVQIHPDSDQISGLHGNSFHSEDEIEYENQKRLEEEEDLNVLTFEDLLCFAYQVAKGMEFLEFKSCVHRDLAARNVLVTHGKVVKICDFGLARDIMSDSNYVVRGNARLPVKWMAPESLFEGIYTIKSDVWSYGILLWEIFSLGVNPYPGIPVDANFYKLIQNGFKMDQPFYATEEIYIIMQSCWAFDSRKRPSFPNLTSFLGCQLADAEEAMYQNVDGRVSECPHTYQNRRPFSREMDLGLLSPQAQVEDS

FLT3(R834Q) = biological target: T2, FLT3(R834Q) (Homo sapiens, UniProt P36888, R834Q); type: binding
T2 sequence (P36888 27-993 R834Q): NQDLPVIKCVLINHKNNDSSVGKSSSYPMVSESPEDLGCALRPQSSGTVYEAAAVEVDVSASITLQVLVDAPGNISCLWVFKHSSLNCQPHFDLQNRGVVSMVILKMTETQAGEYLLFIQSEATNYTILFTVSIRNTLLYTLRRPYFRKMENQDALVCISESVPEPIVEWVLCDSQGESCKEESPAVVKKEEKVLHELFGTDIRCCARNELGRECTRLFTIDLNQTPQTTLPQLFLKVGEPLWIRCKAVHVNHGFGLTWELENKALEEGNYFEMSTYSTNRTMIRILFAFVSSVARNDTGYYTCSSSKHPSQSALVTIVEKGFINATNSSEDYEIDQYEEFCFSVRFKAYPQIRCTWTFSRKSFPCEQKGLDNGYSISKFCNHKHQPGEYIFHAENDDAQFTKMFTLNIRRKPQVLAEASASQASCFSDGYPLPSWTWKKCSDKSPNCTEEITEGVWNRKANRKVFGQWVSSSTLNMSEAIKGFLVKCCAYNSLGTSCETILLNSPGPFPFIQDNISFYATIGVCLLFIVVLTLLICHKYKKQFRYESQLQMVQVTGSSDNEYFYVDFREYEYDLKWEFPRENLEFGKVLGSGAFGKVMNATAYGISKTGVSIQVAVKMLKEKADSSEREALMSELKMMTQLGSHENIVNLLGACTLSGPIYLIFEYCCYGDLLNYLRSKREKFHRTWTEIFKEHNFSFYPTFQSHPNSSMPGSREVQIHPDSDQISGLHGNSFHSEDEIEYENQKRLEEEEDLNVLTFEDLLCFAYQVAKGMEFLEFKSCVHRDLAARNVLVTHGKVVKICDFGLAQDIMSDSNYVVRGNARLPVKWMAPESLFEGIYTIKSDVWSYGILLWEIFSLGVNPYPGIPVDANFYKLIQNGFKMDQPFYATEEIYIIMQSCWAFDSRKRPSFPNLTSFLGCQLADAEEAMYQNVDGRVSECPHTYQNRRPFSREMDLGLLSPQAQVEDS

## CCc1nc(C(N)=O)c(Nc2ccc(N3CCC4(CCN(C)CC4)CC3)c(C)c2)nc1NC1CCOCC1.O=C(O)C(F)(F)F
FLT3(ITD, F691L); FLT3(ITD, F691L)
  Kd: 0.21 nM
FLT3(ITD, F691L); FLT3 (ITD, F691L), ratio of Kd versus compound B
  activity higher than that of the known compound B: 3.6 times
FLT3(R834Q)
  Kd: 31 nM

From patent publication US20230141887A1, “CRYSTAL FORM OF DIAZASPIROPYRAN COMPOUND” (MEDSHINE DISCOVERY INC., priority 2020, published 2023)
